Test results published in the NIST ThermoML archive (doi:10.1021/je7001094).
Numbers after ± are expanded uncertainties.

Key:
[1] = Crystal; DTA
[2] = molar heat capacity at constant pressure; conditions: 323.1 K; 101.33 kPa; Crystal; Small sample (50 mg) DSC
[3] = Molar enthalpy of transition or fusion; conditions: Crystal; DSC

Structure (SMILES)	Normal melting temperature [1] [°C]	molar heat capacity at constant pressure [2] [J/K/mol]	Molar enthalpy of transition or fusion [3] [kcal/mol]
O=c1c(O)c(-c2ccc(O)c(O)c2)oc2cc(O)cc(O)c12 [quercetin]	322.00 ± 1.4	585.9 ± 170	9.92 ± 0.335
O=C1CC(c2ccc(O)cc2)Oc2cc(O)cc(O)c21 (stereo not drawn) [4',5,7-trihydroxyflavanone]	250.00 ± 1.2	259.7 ± 32	9.51 ± 0.239
O=c1cc(-c2ccccc2)oc2cc(O)cc(O)c12 [5,7-dihydroxyflavone]	285.00 ± 2.2	200.6 ± 110	9.37 ± 0.215
COc1ccc([C@@H]2CC(=O)c3c(O)cc(O)cc3O2)cc1O	226.07 ± 2	906 ± 530	8.58 ± 0.191
C[C@@H]1O[C@@H](OC[C@H]2O[C@@H](Oc3c(-c4ccc(O)c(O)c4)oc4cc(O)cc(O)c4c3=O)[C@H](O)[C@@H](O)[C@@H]2O)[C@H](O)[C@H](O)[C@H]1O [rutin]	177.00 ± 3	915 ± 160	19.7 ± 0.406
O=c1c(O[C@@H]2O[C@H]([C@H](O)CO)[C@H](O)[C@H]2O)c(-c2ccc(O)c(O)c2)oc2cc(O)cc(O)c12 [isoquercitrin]	198.00 ± 3	947.9 ± 30	11.9 ± 0.502
